Measured values reported in US9428519B2, “Acylated derivative of homoharringtonine, preparation method therefor, and application thereof” (HANGZHOU BENSHENG PHARMACEUTICAL CO., LTD., priority 2011, dated 2016).
Converted amounts (≈) assume the structure as drawn.

Experiments:
[1] = system: RPMI8226 (multiple myeloma); assay: MTT growth inhibition of multiple myeloma cells, 72 h; type: cell-based, human; conditions: Homo sapiens, RPMI-8226, MTT
Experimental: Multiple myeloma and lymphoma cell lines: RPMI8226 (multiple myeloma), purchased from Fuxiang Bio-tech Co. Ltd., Shanghai, China.
(§1) Obtaining 6000 well-growing leukemia cells and inoculating them into wells of a 96-well cell culture plate. The culture medium is the 1640 cell culture medium containing 10% fetal bovine serum. After adding the homoharringtonine derivatives of different concentrations and mixing uniformly, placing the plate in a carbon dioxide cell incubator (5% CO2) at 37° C. and incubated for 72 hours. Then the viable cell concentration is determined by the MTT method. In this experiment, the cell viability in control group (not treated with any compound) is set as 100%. On such basis, the cell viability (%) after treatment and the 50% inhibiting concentration of the compound for the leukemia cell growth at 72 hours (IC50 value of 72 hours) are calculated.

[2] = system: Kasumi-1 (acute myeloid leukemia M2 type, AML-M2); assay: MTT growth inhibition of leukemia cells, 72 h; type: cell-based, human; conditions: Homo sapiens, Kasumi 1, MTT
From the text: (§2) Leukemia cell lines: leukemia cell lines: K562/adr (drug-resistant, chronic myeloid leukemia, CML), NB4 (acute promyelocytic leukemia, AML), Kasumi-1 (acute myeloid leukemia M2 type, AML-M2), Jurkat (acute lymphoblastic leukemia, ALL), all of which are donated by Cancer Research Institute of Zhejiang University, China; and H9 (acute lymphoblastic leukemia, ALL), which is purchased from China Center for Type Culture Collection (CCTCC).
(§3) Reagents: The standard sample of homoharringtonine (HHT) is purchased from Taihua Natural Plant Pharmaceutical Co., Ltd., Shaanxi, China, the homoharringtonine derivatives of the present invention.
as §1

[3] = system: K562/adr (drug-resistant, chronic myeloid leukemia, CML); assay: MTT growth inhibition of leukemia cells, 72 h; type: cell-based, human; conditions: Homo sapiens, K562/Adr, MTT
From the text: as §2, §3, §1

[4] = system: NB4 (acute promyelocytic leukemia, AML); assay: MTT growth inhibition of leukemia cells, 72 h; type: cell-based, human; conditions: Homo sapiens, MTT
From the text: as §2, §3, §1

[5] = system: Jurkat (acute lymphoblastic leukemia, ALL); assay: MTT growth inhibition of leukemia cells, 72 h; type: cell-based, human; conditions: Homo sapiens, Jurkat
From the text: as §2, §3, §1

[6] = system: H9 (acute lymphoblastic leukemia, ALL); assay: MTT growth inhibition of leukemia cells, 72 h; type: cell-based, human; conditions: Homo sapiens, MTT
From the text: as §2, §3, §1

[7] = system: Hep-2 (laryngeal carcinoma); assay: MTT growth inhibition of human solid tumor cells, 72 h; type: cell-based; conditions: Homo sapiens, HEp-2
Experimental: (§4) Human solid tumor cell lines: Hep-2 (laryngeal carcinoma), A549 (human lung cancer), CaES-17 (esophageal cancer cell), PC-3 (prostate cancer), CNE (nasopharyngeal carcinoma cell), and SK-OV-3 (ovarian cancer cell), all of which are purchased from China Center For Type Culture Collection; RKO (human colon adenocarcinoma cell), MGC 803 (human gastric cancer cell), MG63 (osteosarcoma) and U87 MG (malignant glioma cell), all of which are purchased from Fuxiang Bio-tech Co. Ltd., Shanghai, China; PANC-1 (pancreatic cancer), Huh7 (human liver cancer cell), Becap37 (human breast cancer cell), and Hela (human cervical cancer cell), all of which are donated by Cancer Research Institute of Zhejiang University, China.
(§5) Obtaining 4000 well-growing human solid tumor cells and inoculating them into wells of a 96-well cell culture plate. The culture medium is DMEM High Glucose cell culture medium containing 10% fetal bovine serum. The plate is placed in a carbon dioxide cell incubator (5% CO2) at 37° C. and incubated for 24 hours. After adding the homoharringtonine derivatives of different concentration and mixing uniformly, the plate is placed in a carbon dioxide cell incubator (5% CO2) at 37° C. and incubated for 72 hours. Then the viable cell concentration is determined by the MTT method and the cell viability (%) after drug treatment is calculated. In this experiment, the cell viability of control group (not treated with any compound) is set as 100%.

[8] = system: SK-OV-3 (ovarian cancer cell); assay: as above; type: cell-based; conditions: Homo sapiens, SK-OV-3, MTT
Experimental: as §4, §5

[9] = system: U87 MG (malignant glioma cell); assay: as above; type: cell-based; conditions: Homo sapiens, U-87 MG
Experimental: as §4, §5

[10] = system: RKO (human colon adenocarcinoma cell); assay: as above; type: cell-based; conditions: Homo sapiens, MTT
Experimental: as §4, §5

A549 (human lung cancer) = assay: as above; type: cell-based; conditions: Homo sapiens, A549
Experimental: as §4, §5

[11] = system: Huh7 (human liver cancer cell); assay: as above; type: cell-based; conditions: Homo sapiens, Huh-7
Experimental: as §4, §5

[12] = system: MGC 803 (human gastric cancer cell); assay: as above; type: cell-based; conditions: Homo sapiens, MGC-803
Experimental: as §4, §5

[13] = system: Hela (human cervical cancer cell); assay: as above; type: cell-based; conditions: Homo sapiens, HeLa, MTT
Experimental: as §4, §5

[14] = system: Becap37 (human breast cancer cell); assay: as above; type: cell-based; conditions: Homo sapiens
Experimental: as §4, §5

MG63 (osteosarcoma) = assay: as above; type: cell-based; conditions: Homo sapiens, MG-63, MTT
Experimental: as §4, §5

[15] = system: CNE (nasopharyngeal carcinoma cell); assay: as above; type: cell-based; conditions: for IC50 / IC90: Homo sapiens, MTT
Experimental: as §4, §5

[16] = system: PANC-1 (pancreatic cancer); assay: as above; type: cell-based; conditions: Homo sapiens, PANC-1, MTT
Experimental: as §4, §5

PC-3 (prostate cancer) = assay: as above; type: cell-based; conditions: Homo sapiens, MTT
Experimental: as §4, §5

[17] = system: CaES-17 (esophageal cancer cell); assay: as above; type: cell-based; conditions: Homo sapiens, CaEs17
Experimental: as §4, §5

## COC(=O)C[C@](O)(CCCC(C)(C)OC(=O)C1CCCC1)C(=O)O[C@@H]1C(OC)=C[C@]23CCCN2CCc2cc4c(cc2[C@H]13)OCO4 [BS-HH-077]
[1]
  IC50: 0.004 µg/mL (≈ 0.00623 µM)
  IC90: 0.024 µg/mL (≈ 0.0374 µM)
[2]
  IC50: 0.004 µg/mL (≈ 0.00623 µM)
  IC90: 0.012 µg/mL (≈ 0.0187 µM)
[3]
  IC50: 0.01 µg/mL (≈ 0.0156 µM)
  IC90: 0.05 µg/mL (≈ 0.0779 µM)
[4]
  IC50: 0.009 µg/mL (≈ 0.014 µM)
  IC90: 0.022 µg/mL (≈ 0.0343 µM)
[5]
  IC50: 0.001 µg/mL (≈ 0.00156 µM)
  IC90: 11.4 µg/mL (≈ 17.7 µM)
[6]
  IC50: 0.01 µg/mL (≈ 0.0156 µM)
  IC90: 0.03 µg/mL (≈ 0.0467 µM)
[7]
  IC50: 0.007 µg/mL (≈ 0.0109 µM)
  IC90: > 16 µg/mL
[8]
  IC50: 0.034 µg/mL (≈ 0.053 µM)
  IC90: > 16 µg/mL
[9]
  IC50: 0.035 µg/mL (≈ 0.0545 µM)
  IC90: 0.16 µg/mL (≈ 0.249 µM)
[10]
  IC50: 0.006 µg/mL (≈ 0.00935 µM)
  IC90: 0.02 µg/mL (≈ 0.0312 µM)
A549 (human lung cancer)
  IC50: 0.02 µg/mL (≈ 0.0312 µM)
  IC90: > 16 µg/mL
[11]
  IC50: 0.016 µg/mL (≈ 0.0249 µM)
  IC90: 0.36 µg/mL (≈ 0.561 µM)
[12]
  IC50: 0.021 µg/mL (≈ 0.0327 µM)
  IC90: 0.087 µg/mL (≈ 0.136 µM)
[13]
  IC50: 0.014 µg/mL (≈ 0.0218 µM)
  IC90: 16 µg/mL (≈ 24.9 µM)
[14]
  IC50: 0.007 µg/mL (≈ 0.0109 µM)
  IC90: 11.1 µg/mL (≈ 17.3 µM)
MG63 (osteosarcoma)
  IC50: 0.021 µg/mL (≈ 0.0327 µM)
  IC90: 5.14 µg/mL (≈ 8.01 µM)
[15]
  IC50: 0.012 µg/mL (≈ 0.0187 µM)
  IC90: > 16 µg/mL
[15]; vs HHT
  anti-CNE effect relative to homoharringtonine: more than 3 fold
[16]
  IC50: 0.055 µg/mL (≈ 0.0857 µM)
  IC90: > 16 µg/mL
PC-3 (prostate cancer)
  IC50: 0.039 µg/mL (≈ 0.0608 µM)
  IC90: > 16 µg/mL
[17]
  IC50: 0.031 µg/mL (≈ 0.0483 µM)
  IC90: 16 µg/mL (≈ 24.9 µM)

## COC(=O)C[C@@](CCCC(C)(C)OC(=O)c1cccs1)(OC(=O)c1cccs1)C(=O)O[C@@H]1C(OC)=C[C@]23CCCN2CCc2cc4c(cc2[C@H]13)OCO4 [BS-HH-0572]
[1]
  IC50: 0.155 µg/mL (≈ 0.202 µM)
  IC90: 1.13 µg/mL (≈ 1.48 µM)
[2]
  IC50: 0.065 µg/mL (≈ 0.0849 µM)
  IC90: 0.4 µg/mL (≈ 0.522 µM)
[3]
  IC50: 0.32 µg/mL (≈ 0.418 µM)
  IC90: 16 µg/mL (≈ 20.9 µM)
[4]
  IC50: 0.12 µg/mL (≈ 0.157 µM)
  IC90: 0.4 µg/mL (≈ 0.522 µM)
[5]
  IC50: 0.11 µg/mL (≈ 0.144 µM)
  IC90: 7.5 µg/mL (≈ 9.79 µM)
[6]
  IC50: 0.21 µg/mL (≈ 0.274 µM)
  IC90: 0.48 µg/mL (≈ 0.627 µM)
[7]
  IC50: 0.23 µg/mL (≈ 0.3 µM)
  IC90: > 16 µg/mL
[8]
  IC50: 0.98 µg/mL (≈ 1.28 µM)
  IC90: > 16 µg/mL
[9]
  IC50: 0.23 µg/mL (≈ 0.3 µM)
  IC90: 0.99 µg/mL (≈ 1.29 µM)
[10]
  IC50: 0.12 µg/mL (≈ 0.157 µM)
  IC90: 0.56 µg/mL (≈ 0.731 µM)
A549 (human lung cancer)
  IC50: 0.48 µg/mL (≈ 0.627 µM)
  IC90: > 16 µg/mL
[11]
  IC50: 0.17 µg/mL (≈ 0.222 µM)
  IC90: 1.7 µg/mL (≈ 2.22 µM)
[12]
  IC50: 0.24 µg/mL (≈ 0.313 µM)
  IC90: 1.62 µg/mL (≈ 2.12 µM)
[13]
  IC50: 0.45 µg/mL (≈ 0.588 µM)
  IC90: 11.5 µg/mL (≈ 15.1 µM)
[14]
  IC50: 0.2 µg/mL (≈ 0.261 µM)
  IC90: 9.75 µg/mL (≈ 12.7 µM)
MG63 (osteosarcoma)
  IC50: 0.2 µg/mL (≈ 0.261 µM)
  IC90: 4.75 µg/mL (≈ 6.2 µM)
[15]
  IC50: 0.35 µg/mL (≈ 0.457 µM)
  IC90: 14.3 µg/mL (≈ 18.6 µM)
[16]
  IC50: 0.43 µg/mL (≈ 0.561 µM)
  IC90: 12.6 µg/mL (≈ 16.4 µM)
PC-3 (prostate cancer)
  IC50: 1.84 µg/mL (≈ 2.4 µM)
  IC90: > 16 µg/mL
[17]
  IC50: 0.74 µg/mL (≈ 0.966 µM)
  IC90: 16 µg/mL (≈ 20.9 µM)
